# Laboratory results taken from US10987363B2, “Fluticasone furoate in the treatment of COPD” (GLAXOSMITHKLINE INTELLECTUAL PROPERTY DEVELOPMENT LIMITED, priority 2014, dated 2021).
# Key:
# COPD patients [1] = experiment: Re-analysis of ISOLDE 3-year clinical study: rate of decline of FEV1 by baseline blood eosinophil count; assay type: in vivo, human; conditions: 500 mcg twice daily
# From the text: Methods: The results of ISOLDE (Burge P S et al BMJ 2000; 320:1297-303), a 3-year study of the effects of fluticasone propionate (FP) 500 mcg twice daily on rate of decline of FEV1 in well-characterised COPD patients were re-analysed by baseline blood eosinophil count (≥2%, <2%).
# COPD patients [2] = conditions: pre-specified analysis of ISOLDE, all patients; 500 mcg twice daily, 3 years; cited from earlier work
compound,measurement,setting,value
"CCC(=O)O[C@]1(C(=O)SCF)[C@H](C)C[C@H]2[C@@H]3C[C@H](F)C4=CC(=O)C=C[C@]4(C)[C@@]3(F)[C@@H](O)C[C@@]21C [FP, fluticasone propionate]",difference in rate of decline of FEV1 vs. placebo,"COPD patients [1]; patients with eosinophil count <2%, 3 years",no difference
same,slowing of the rate of decline of lung function compared with placebo,"COPD patients [1]; patients with eosinophil count ≥2%, p=0.001",38 mL per year
same,effect on the rate of decline of FEV1 vs. placebo,COPD patients [2],no effect
